Test results published in US20220331458A1, “AGENTS FOR CLEAVING LABELS FROM BIOMOLECULES IN VIVO” (TAGWORKS PHARMACEUTICALS B.V., priority 2019, published 2022).
Marks after values point to notes of the source that are not given here.

Experiments:
[1] = test system: radiolabeled mAb-conjugates; assay: In vitro Label release from radiolabeled mAb-TCO-chelate conjugates incubated with Cleaving Agents (SEC); conditions: Label release from TCO derivative 1.8 on trastuzumab, ^111In; 50% mouse plasma in PBS, 37°C, 15-24 h
Protocol: Briefly, mAb solutions in PBS (4 mg/mL final concentration) were added with 15-20 eq of the NHS-derivative (dissolved at 10 mg/mL in DMSO) and the pH was adjusted to 9 with 1M sodium carbonate. The reaction mixtures were incubated at rt in the dark for 2 h then the products were purified by dialysis (20 kDa MW cut-off membranes) in chelex-treated 0.25M NH4OAc pH 5.5.
After 15-24 h incubation the mixtures were analyzed by SEC and the amount of released Label was quantified from the radioactivity elution profile.

[2] = set-up: species or system mice; conditions: female, Balb/C nude, mouse, in vivo
Protocol: Blood samples were withdrawn 5 min before and at various times after Cleaving Agent administration and the radioactivity was measured in a gamma-counter.

- decrease of radioactivity circulating in blood [2]: ca. 30%
SMILES: O=C(O)CCCC(=O)Nc1cccnc1-c1nnc(-c2ncccc2NC(=O)CCCC(=O)O)nn1 [Compound 2.7, 5,5′-((2,2′-(1,2,4,5-Tetrazine-3,6-diyl)bis(pyridine-3,2-diyl))bis(azanediyl))bis(5-oxopentanoic acid)]
- release (%) [1]: 55.3^a %
